Results as given in publication PMC10909772 (Saudi Pharmaceutical Journal : SPJ, 2024).
Where two headings read alike, the source gives them in different places.

Tests used:
xanthine oxidase [1] = target: T1, xanthine oxidase (Bos taurus, UniProt P80457); settings: cited from earlier work; for inhibition of the xanthine oxidase enzyme (in words): ref Mostafa et al., 2007
xanthine oxidase [2] = target: T1, xanthine oxidase; test: Kinetics of xanthine oxidase inhibition; type: biochemical; settings: Lineweaver-Burk double reciprocal plots, xanthine as substrate
xanthine oxidase [3] = target: T1, xanthine oxidase; test: Xanthine oxidase inhibitory assay; type: biochemical

T1 sequence (P80457 whole entry): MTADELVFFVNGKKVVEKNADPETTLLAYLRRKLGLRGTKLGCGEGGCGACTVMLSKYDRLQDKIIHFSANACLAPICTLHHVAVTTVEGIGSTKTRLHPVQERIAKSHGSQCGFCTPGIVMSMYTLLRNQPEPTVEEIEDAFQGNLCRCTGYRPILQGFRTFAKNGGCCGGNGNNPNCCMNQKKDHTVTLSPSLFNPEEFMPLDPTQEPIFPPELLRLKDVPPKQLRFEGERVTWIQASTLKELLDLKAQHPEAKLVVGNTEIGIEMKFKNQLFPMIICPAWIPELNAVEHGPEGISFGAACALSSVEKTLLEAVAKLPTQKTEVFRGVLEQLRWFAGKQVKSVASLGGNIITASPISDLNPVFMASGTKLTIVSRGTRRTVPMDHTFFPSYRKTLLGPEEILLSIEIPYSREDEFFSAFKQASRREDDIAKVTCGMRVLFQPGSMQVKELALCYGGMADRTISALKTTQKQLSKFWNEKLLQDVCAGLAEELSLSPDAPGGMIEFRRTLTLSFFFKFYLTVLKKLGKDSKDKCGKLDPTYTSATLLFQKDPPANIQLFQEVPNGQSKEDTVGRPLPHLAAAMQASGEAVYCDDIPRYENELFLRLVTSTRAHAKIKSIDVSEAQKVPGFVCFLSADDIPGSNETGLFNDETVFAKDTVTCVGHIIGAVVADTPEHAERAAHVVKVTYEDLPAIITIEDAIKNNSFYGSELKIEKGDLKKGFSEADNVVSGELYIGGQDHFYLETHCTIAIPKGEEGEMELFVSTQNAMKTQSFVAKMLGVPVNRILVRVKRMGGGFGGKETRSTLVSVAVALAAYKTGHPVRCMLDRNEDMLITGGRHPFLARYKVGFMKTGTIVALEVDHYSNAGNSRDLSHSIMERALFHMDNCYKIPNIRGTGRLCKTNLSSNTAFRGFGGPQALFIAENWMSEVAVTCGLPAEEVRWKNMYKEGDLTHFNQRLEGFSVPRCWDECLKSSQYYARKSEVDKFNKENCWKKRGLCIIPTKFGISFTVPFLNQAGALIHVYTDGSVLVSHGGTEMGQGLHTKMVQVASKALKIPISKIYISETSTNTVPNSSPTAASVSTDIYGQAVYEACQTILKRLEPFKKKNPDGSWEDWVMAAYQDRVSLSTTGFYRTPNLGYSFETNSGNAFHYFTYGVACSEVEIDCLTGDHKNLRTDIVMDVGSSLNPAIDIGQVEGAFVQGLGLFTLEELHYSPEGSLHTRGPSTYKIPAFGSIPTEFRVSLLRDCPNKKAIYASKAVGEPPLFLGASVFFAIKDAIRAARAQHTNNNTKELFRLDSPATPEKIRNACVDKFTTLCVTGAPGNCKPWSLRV

Which type of inhibition (xanthine oxidase [1]; ref Lin et al., 2002) does the source give for `O=c1cc(-c2ccc(O)cc2)oc2cc(O)cc(O)c12` [apigenin] here?
Its type of inhibition is “competitive”.

For `COC(=O)/C=C/c1ccc(O)c(O)c1` [methyl caffeate], which IC50 (xanthine oxidase [1]; ref Nguyen et al., 2006) is on record?
Its IC50 is 12.3 µM.

And the inhibition type (xanthine oxidase [1]; ref Nguyen et al., 2006)?
Its inhibition type is “competitive”.

Which results are given for `O=C(O)/C=C/c1ccc(O)cc1` [Compound 5, p-coumaric acid]?
type of inhibition (xanthine oxidase [2]): competitive; IC50 (xanthine oxidase [3]): 23.3 ± 1.88 µM

For `O=c1c(-c2ccc(O)cc2)coc2cc(O)cc(O)c12` [genistein], which type of inhibition (xanthine oxidase [1]; ref Lin et al., 2002) is on record?
Its type of inhibition is “competitive”.

For `COc1ccc(CCO[C@@H]2O[C@H](CO[C@@H]3OC[C@H](O)[C@H](O)[C@H]3O)[C@@H](OC(=O)/C=C/c3ccc(O)c(OC)c3)[C@H](O[C@@H]3O[C@@H](C)[C@H](O)[C@@H](O)[C@H]3O)[C@H]2O)cc1O` [angoroside C], which “inhibition of the xanthine oxidase enzyme (in words)” value (xanthine oxidase [1]) is on record?
Its value is “moderate inhibitors”.

For `COc1ccc(CCO[C@@H]2O[C@H](CO)[C@@H](OC(=O)/C=C/c3ccc(O)c(OC)c3)[C@H](O[C@@H]3O[C@@H](C)[C@H](O)[C@@H](O)[C@H]3O[C@@H]3O[C@H](CO)[C@@H](O)[C@H](O)[C@H]3O)[C@H]2O)cc1O` [incanoside D], which “inhibition of the xanthine oxidase enzyme (in words)” value (xanthine oxidase [1]) is on record?
Its value is “moderate inhibitors”.

With `O=c1cc(-c2ccc(O)c(O)c2)oc2cc(O)cc(O)c12` [luteolin] as the compound, how does the Ki (xanthine oxidase [1]; read-out: inhibition constant (Ki), ref Yan et al., 2013) read?
The Ki was 2.38 µM.

And the IC50 (xanthine oxidase [1]; ref Yan et al., 2013)?
Its IC50 is 4.79 µM.

And the type of inhibition (xanthine oxidase [1]; ref Yan et al., 2013)?
Its type of inhibition is “competitive”.

For `O=c1c(O)c(-c2cc(O)c(O)c(O)c2)oc2cc(O)cc(O)c12` [myricetin], which type of inhibition (xanthine oxidase [1]; ref Lin et al., 2002) is on record?
The type of inhibition was “competitive”.

Which type of inhibition (xanthine oxidase [1]; ref Lin et al., 2002) does the source give for `O=c1c(O)c(-c2ccc(O)c(O)c2)oc2cc(O)cc(O)c12` [quercetin] here?
Its type of inhibition is “competitive”.

For `O=C(O)/C=C/c1ccc(O)c(O)c1` [caffeic acid], which IC50 (xanthine oxidase [1]; ref Nguyen et al., 2006) is on record?
Its IC50 is 85.4 µM.

What about the inhibition type (xanthine oxidase [1]; ref Nguyen et al., 2006) of the same compound?
Its inhibition type is “competitive”.

What does the source list for `COc1ccc(/C=C/C(=O)O)cc1` [Compound 3, trans-4-methoxycinnamic acid]?
type of inhibition (xanthine oxidase [2]): competitive; IC50 (xanthine oxidase [3]): 26.3 ± 3.36 µM

For `Oc1ncnc2[nH]ncc12` [Allopurinol], which “type of inhibition” value (xanthine oxidase [2]) is on record?
Its value is “competitive”.
